Drawing on the supplement of paper PMC12137928, this text covers IC50 cell viability for 54 molecules.

Structures can show the parent of a compound that is named as a salt.

The experiment relates to HCT116. Particulars: 72 h. In outline:
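After seeding at 250 cells per well in 1536-well plates, HCT116 cells were given 5 h to attach. CellTiter-Glo luminescence, scaled to 0% for vehicle and -100% for positive control, was pattern-corrected. Fitting with a four-parameter Hill model produced IC50 and maximal efficacy.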

With `CC1(C)S[C@@H]2[C@H](N)C(=O)N2[C@H]1C(=O)O` [6-Aminopenicillanic acid], the IC50 cell viability is over 45.8 µM (ICRF193 0 nM) and over 45.8 µM (ICRF193 200 nM).
Turning to `CC(Oc1ccccc1)C(=O)N[C@@H]1C(=O)N2[C@@H]1SC(C)(C)[C@@H]2C(=O)O` (stereo partly drawn) [Phenethicillin potassium salt], the IC50 cell viability reads like this: (ICRF193 0 nM) over 45.8 µM; (ICRF193 200 nM) over 45.8 µM.
`Cc1c(NC(=O)c2cccnc2)c(=O)n(-c2ccccc2)n1C` [Nifenazone] had an IC50 cell viability (ICRF193 0 nM) of over 45.8 µM and an IC50 cell viability (ICRF193 200 nM) of over 45.8 µM.
Consider `O=C1CN(/N=C/c2ccc(-c3ccc([N+](=O)[O-])cc3)o2)C(=O)N1` [Dantrolene sodium], for which the IC50 cell viability is over 45.8 µM (ICRF193 0 nM) and over 45.8 µM (ICRF193 200 nM).
For `CC(C)(C)c1ccc2c(S(=O)(=O)O)c(C(C)(C)C)ccc2c1` [DIBUNATE SODIUM], the IC50 cell viability reads like this: (ICRF193 0 nM) over 45.8 µM; (ICRF193 200 nM) over 45.8 µM.
As to `CN1CCN(C(c2ccccc2)c2ccccc2)CC1` [Cyclizine hydrochloride], the IC50 cell viability was over 45.8 µM (ICRF193 0 nM) and over 45.8 µM (ICRF193 200 nM).
Take `O=S1(=O)OC(c2ccc(O)cc2)(c2ccc(O)cc2)c2ccccc21` [Phenol red]: the IC50 cell viability by setting is: (ICRF193 0 nM) over 45.8 µM; (ICRF193 200 nM) over 45.8 µM.
Consider `CCOC(=O)C1=C[C@]2(CC)CCCN3CCc4c(n1c1ccccc41)[C@@H]32` [Vinpocetine], for which the IC50 cell viability is, setting by setting: (ICRF193 0 nM) over 45.8 µM; (ICRF193 200 nM) over 45.8 µM.
In the case of `Cc1cccc(N(C)C(=S)Oc2ccc3ccccc3c2)c1` [Tolnaftate], the IC50 cell viability by setting is: (ICRF193 0 nM) over 45.8 µM; (ICRF193 200 nM) over 45.8 µM.
Consider `CC(=O)Oc1cc(C(C)C)c(OCCN(C)C)cc1C` [Moxisylyte hydrochloride], for which the IC50 cell viability was over 45.8 µM (ICRF193 0 nM) and over 45.8 µM (ICRF193 200 nM).
On to `O=C(O)c1ccc(OCCCOc2ccc(C(=O)O)cc2)cc1` [1,3-Bis(4-carboxyphenoxy)propane], for which the IC50 cell viability is over 45.8 µM (ICRF193 0 nM) and over 45.8 µM (ICRF193 200 nM).
For the molecule `CC(=O)N[C@@H](CCC(N)=O)C(=O)O` [Nalpha-Acetyl-L-glutamine], the IC50 cell viability is over 45.8 µM (ICRF193 0 nM) and over 45.8 µM (ICRF193 200 nM).
For `CCCCCCCCCC(=O)O[C@H]1CC[C@H]2[C@@H]3CCC4=CC(=O)CC[C@]4(C)[C@H]3CC[C@]12C` [Testosterone decanoate], the IC50 cell viability reads like this: (ICRF193 0 nM) over 45.8 µM; (ICRF193 200 nM) over 45.8 µM.
`CC[C@H]1OC(=O)C[C@@H](O)[C@H](C)[C@@H](O[C@@H]2O[C@H](C)[C@@H](O)[C@H](N(C)C)[C@H]2O)[C@@H](CCN2C[C@H](C)C[C@H](C)C2)C[C@@H](C)C(=O)/C=C/C(C)=C/[C@@H]1CO[C@@H]1O[C@H](C)[C@@H](O)[C@@H](OC)[C@H]1OC` [TILMICOSIN]: the IC50 cell viability runs as follows: (ICRF193 0 nM) over 45.8 µM; (ICRF193 200 nM) over 45.8 µM.
In the case of `Nc1nc(CC(=O)Nc2ccc(CCNC[C@H](O)c3ccccc3)cc2)cs1` [Mirabegron], the IC50 cell viability by setting is: (ICRF193 0 nM) over 45.8 µM; (ICRF193 200 nM) over 45.8 µM.
On to `COC1CC(=C(c2cccs2)c2cccs2)C[N+](C)(C)C1` (stereo not drawn) [Timepidium bromide], for which the IC50 cell viability is, setting by setting: (ICRF193 0 nM) over 45.8 µM; (ICRF193 200 nM) over 45.8 µM.
With `COC1(O[C@H]2CC[C@H]3[C@@H]4CC[C@H]5C[C@@H]6S[C@@H]6C[C@]5(C)[C@H]4CC[C@]23C)CCCC1` [Mepitiostane (Contains ~15% 3a,4a-Epithio isomer)], the IC50 cell viability reads like this: (ICRF193 0 nM) over 45.8 µM; (ICRF193 200 nM) over 45.8 µM.
Consider `CN1C(=O)CCS(=O)(=O)C1c1ccc(Cl)cc1` (stereo not drawn) [Chlormezanone], for which the IC50 cell viability reads like this: (ICRF193 0 nM) over 45.8 µM; (ICRF193 200 nM) over 45.8 µM.
With `CC(=O)N(c1onc(C)c1C)S(=O)(=O)c1ccc(N)cc1` [Sulfisoxazole acetal], the IC50 cell viability (ICRF193 0 nM) is over 45.8 µM and the IC50 cell viability (ICRF193 200 nM) was over 45.8 µM.
As to `CN1CCC2=C(C1)C(c1ccccc1)c1ccccc12` (stereo not drawn) [PHENINDAMINE], the IC50 cell viability is, setting by setting: (ICRF193 0 nM) over 45.8 µM; (ICRF193 200 nM) over 45.8 µM.
For the molecule `CCCCC/C=C/C/C=C/CCCCCCCC(=O)NC(C)c1ccccc1` (stereo not drawn) [Melinamide], the IC50 cell viability is, setting by setting: (ICRF193 0 nM) over 45.8 µM; (ICRF193 200 nM) over 45.8 µM.
`CCC(NC(C)C)C(O)c1ccc(O)c2[nH]c(=O)ccc12` (stereo not drawn) [Procaterol] showed an IC50 cell viability (ICRF193 0 nM) of over 45.8 µM and an IC50 cell viability (ICRF193 200 nM) of over 45.8 µM.
For the molecule `Cc1cn([C@H]2C=C[C@@H](CO)O2)c(=O)[nH]c1=O` [Stavudine], the IC50 cell viability was over 45.8 µM (ICRF193 0 nM) and over 45.8 µM (ICRF193 200 nM).
`CN1C(=O)C[C@@H](C(=O)N[C@@H](Cc2c[nH]cn2)C(=O)N2CCC[C@H]2C(N)=O)NC1=O` [Taltirelin] had an IC50 cell viability (ICRF193 0 nM) of over 45.8 µM and an IC50 cell viability (ICRF193 200 nM) of over 45.8 µM.
In the case of `C[N+]1(C)CCCC(OC(=O)C(O)(c2ccccc2)c2ccccc2)C1` (stereo not drawn) [Mepenzolate bromide], the IC50 cell viability (ICRF193 0 nM) was over 45.8 µM and the IC50 cell viability (ICRF193 200 nM) is over 45.8 µM.
`Cc1ncc(CO)c(CO)c1O` [Pyridoxine]: the IC50 cell viability is over 45.8 µM (ICRF193 0 nM) and over 45.8 µM (ICRF193 200 nM).
Consider `CS(=O)(=O)Nc1ccc([N+](=O)[O-])cc1Oc1ccccc1` [Nimesulide], for which the IC50 cell viability runs as follows: (ICRF193 0 nM) over 45.8 µM; (ICRF193 200 nM) over 45.8 µM.
In the case of `CCOc1cc([C@@H](CS(C)(=O)=O)N2C(=O)c3cccc(NC(C)=O)c3C2=O)ccc1OC`, the IC50 cell viability is over 45.8 µM (ICRF193 0 nM) and over 45.8 µM (ICRF193 200 nM).
`COC(=O)CCC(=O)CN` [Methyl delta-aminolevulinate hydrochloride] returned an IC50 cell viability (ICRF193 0 nM) of over 45.8 µM and an IC50 cell viability (ICRF193 200 nM) of over 45.8 µM.
Regarding `CCCCC(O)c1ccccc1` (stereo not drawn) [Fenipentol], the IC50 cell viability (ICRF193 0 nM) is over 45.8 µM and the IC50 cell viability (ICRF193 200 nM) was over 45.8 µM.
As for `CC(C)Cn1cnc2c(N)nc3ccccc3c21` [Imiquimod], the IC50 cell viability is, setting by setting: (ICRF193 0 nM) over 45.8 µM; (ICRF193 200 nM) over 45.8 µM.
For the molecule `COCCOC(=O)C1=C(C)NC(C)=C(C(=O)OC(C)C)C1c1cccc([N+](=O)[O-])c1` (stereo not drawn) [Nimodipine], the IC50 cell viability is, setting by setting: (ICRF193 0 nM) over 45.8 µM; (ICRF193 200 nM) over 45.8 µM.
Take `CCCCCC[C@@H](O)C/C=C\CCCCCCCC(=O)O` [Potassium ricinoleate]: the IC50 cell viability was over 45.8 µM (ICRF193 0 nM) and over 45.8 µM (ICRF193 200 nM).
As to `OC[C@H]1O[C@@](CO)(O[C@H]2O[C@H](CO)[C@@H](O)[C@H](O)[C@H]2O)[C@@H](O)[C@@H]1O` [Sucrose], the IC50 cell viability reads like this: (ICRF193 0 nM) over 45.8 µM; (ICRF193 200 nM) over 45.8 µM.
For the molecule `O=C(OCC(COC(=O)c1cccnc1)(COC(=O)c1cccnc1)COC(=O)c1cccnc1)c1cccnc1` [Niceritrol], the IC50 cell viability (ICRF193 0 nM) is over 45.8 µM and the IC50 cell viability (ICRF193 200 nM) is over 45.8 µM.
In the case of `Cc1ccccc1O` [o-Cresol], the IC50 cell viability was over 45.8 µM (ICRF193 0 nM) and over 45.8 µM (ICRF193 200 nM).
Consider `Cc1ccc(O)cc1` [p-Cresol], for which the IC50 cell viability (ICRF193 0 nM) is over 45.8 µM and the IC50 cell viability (ICRF193 200 nM) was over 45.8 µM.
With `CC(C)/N=c1\cc2n(-c3ccc(Cl)cc3)c3ccccc3nc-2cc1Nc1ccc(Cl)cc1` [Clofazimine], the IC50 cell viability by setting is: (ICRF193 0 nM) over 45.8 µM; (ICRF193 200 nM) over 45.8 µM.
Consider `CC1(C)C2CCC1(C)C(O)C2` (stereo not drawn) [BORNEOL], for which the IC50 cell viability is over 45.8 µM (ICRF193 0 nM) and over 45.8 µM (ICRF193 200 nM).
`CCC(c1ccccc1)c1noc(CCN(CC)CC)n1` (stereo not drawn) [Proxazole citrate]: the IC50 cell viability reads like this: (ICRF193 0 nM) over 45.8 µM; (ICRF193 200 nM) over 45.8 µM.
Regarding `Cc1nnc(C(C)C)n1C1C[C@H]2CC[C@@H](C1)N2CC[C@H](NC(=O)C1CCC(F)(F)CC1)c1ccccc1` (stereo in doubt) [Maraviroc], the IC50 cell viability is, setting by setting: (ICRF193 0 nM) over 45.8 µM; (ICRF193 200 nM) over 45.8 µM.
Consider `CCN(CC)CC#CCOC(=O)C(O)(c1ccccc1)C1CCCCC1` (stereo not drawn) [Oxybutynin chloride], for which the IC50 cell viability was over 45.8 µM (ICRF193 0 nM) and over 45.8 µM (ICRF193 200 nM).
For `CC[C@@H]1C(=O)OC[C@@H]1Cc1cncn1C` [Pilocarpine], the IC50 cell viability (ICRF193 0 nM) was over 45.8 µM and the IC50 cell viability (ICRF193 200 nM) was over 45.8 µM.
As for `CCN1CCC[C@H]1CNC(=O)c1cc(S(N)(=O)=O)ccc1OC` [Levosulpiride], the IC50 cell viability is, setting by setting: (ICRF193 0 nM) over 45.8 µM; (ICRF193 200 nM) over 45.8 µM.
For `CCCCCCCC(=O)OCC(COC(=O)CCCCCCC)OC(=O)CCCCCCC` [Tricaprylin], the IC50 cell viability was over 45.8 µM (ICRF193 0 nM) and over 45.8 µM (ICRF193 200 nM).
Take `CC(C)(C)c1ccc(C(O)CCCN2CCC(C(O)(c3ccccc3)c3ccccc3)CC2)cc1` (stereo not drawn) [Terfenadine]: the IC50 cell viability by setting is: (ICRF193 0 nM) over 45.8 µM; (ICRF193 200 nM) over 45.8 µM.
For `O=[N+]([O-])O[C@H]1CO[C@H]2[C@@H]1OC[C@H]2O[N+](=O)[O-]` [Isosorbide dinitrate], the IC50 cell viability by setting is: (ICRF193 0 nM) over 45.8 µM; (ICRF193 200 nM) over 45.8 µM.
Turning to `CCC1(C)CC(=O)NC1=O` (stereo not drawn) [Ethosuximide], the IC50 cell viability is, setting by setting: (ICRF193 0 nM) over 45.8 µM; (ICRF193 200 nM) over 45.8 µM.
On to `Cc1cc(-c2ccc(/N=N/c3c(S(=O)(=O)O)cc4cc(S(=O)(=O)O)cc(N)c4c3O)c(C)c2)ccc1/N=N/c1c(S(=O)(=O)O)cc2cc(S(=O)(=O)O)cc(N)c2c1O` [TRYPAN BLUE], for which the IC50 cell viability was over 45.8 µM (ICRF193 0 nM) and over 45.8 µM (ICRF193 200 nM).
`CCN1CCCC1CNC(=O)c1cc(S(=O)(=O)CC)c(N)cc1OC` (stereo not drawn) [Amisulpride]: the IC50 cell viability (ICRF193 0 nM) is over 45.8 µM and the IC50 cell viability (ICRF193 200 nM) is over 45.8 µM.
Regarding `Cc1cn[nH]c1` [Fomepizole], the IC50 cell viability by setting is: (ICRF193 0 nM) over 45.8 µM; (ICRF193 200 nM) over 45.8 µM.
In the case of `CC(CN(C)C)CN1c2ccccc2CCc2ccccc21` (stereo not drawn) [Trimipramine maleate], the IC50 cell viability (ICRF193 0 nM) was over 45.8 µM and the IC50 cell viability (ICRF193 200 nM) is over 45.8 µM.
`CO[C@@]1(NC(=O)CSC(F)F)C(=O)N2C(C(=O)O)=C(CSc3nnnn3CCO)CO[C@@H]21` [Flomoxef]: the IC50 cell viability by setting is: (ICRF193 0 nM) over 45.8 µM; (ICRF193 200 nM) over 45.8 µM.
As to `O=C(c1ccc(F)cc1)C1CCN(CCn2c(=O)[nH]c3ccccc3c2=O)CC1` [Ketanserin], the IC50 cell viability reads like this: (ICRF193 0 nM) over 45.8 µM; (ICRF193 200 nM) over 45.8 µM.
